From ChEMBL document CHEMBL3044973, “Substituted 9-aryl-1,8-acridinedione derivatives and their effects on potassium channels” (Med Chem Res, 2009) come the findings set out here.

The term Emax denotes the maximal effect, on the per cent scale that the assay sets.

Settings in all cases: Aorta
For assay [1], the target named is T1, Potassium channel protein (Rattus norvegicus) (UniProt Q6I9B6).
T1 sequence (whole entry): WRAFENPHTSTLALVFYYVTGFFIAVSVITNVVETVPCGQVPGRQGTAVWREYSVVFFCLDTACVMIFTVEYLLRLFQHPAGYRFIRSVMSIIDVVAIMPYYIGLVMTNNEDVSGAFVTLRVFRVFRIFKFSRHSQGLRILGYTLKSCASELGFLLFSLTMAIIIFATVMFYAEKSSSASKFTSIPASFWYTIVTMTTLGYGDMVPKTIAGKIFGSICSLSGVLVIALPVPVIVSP
Description: Activation of potassium channel in Rattus norvegicus (rat) aortic rings assessed as inhibition of phenylepinephrine-induced contractile response in presence of calcium activated potassium channel inhibitor TEA.

Assay [2] deals with T1, Potassium channel protein (Rattus norvegicus). The assay can be described thus: Activation of potassium channel in Rattus norvegicus (rat) aortic rings assessed as inhibition of phenylepinephrine-induced contractile response in presence of ATP-sensitive potassium channel inhibitor glibenclamide.
Assay [3] has the same target. The assay can be described thus: Activation of potassium channel in Rattus norvegicus (rat) aortic rings assessed as inhibition of phenylepinephrine-induced contractile response.
The target is the same in assay [4]. The assay can be described thus: Activation of potassium channel in Rattus norvegicus (rat) aortic rings assessed as inhibition of phenylepinephrine-induced contractile response in presence of calcium activated potassium channel inhibitor TEA relative to control.
For assay [5] the target is unchanged. The assay can be described thus: Activation of potassium channel in Rattus norvegicus (rat) aortic rings assessed as inhibition of phenylepinephrine-induced contractile response in presence of ATP-sensitive potassium channel inhibitor glibenclamide relative to control.
For assay [6] the target is unchanged. The assay can be described thus: Activation of potassium channel in Rattus norvegicus (rat) aortic rings assessed as inhibition of phenylepinephrine-induced contractile response relative to control.

On to `CC1CC(=O)C2=C(C1)NC1=C(C(=O)CC(C)C1)C2c1cc(F)cc(C(F)(F)F)c1` (stereo unspecified), for which the Activity result in assay [1], in assay [2] and in assay [3] was “Dose-dependent effect” each time.

`CC1CC(=O)C2=C(C1)NC1=C(C(=O)CC(C)C1)C2c1ccc(F)c(C(F)(F)F)c1` (stereo unspecified): the Activity result in assay [1], in assay [2] and in assay [3] was “Dose-dependent effect” in each case. In addition, in assay [3], the pD2 was determined as 4.13. The figures for the Emax in assay [4], in assay [5] and in assay [6] were 15.5%, 22.4% and 55%, respectively.

For the molecule `CC1CC(=O)C2=C(C1)NC1=C(C(=O)CC(C)C1)C2c1ccc(F)cc1C(F)(F)F` (stereo unspecified), the Activity result in assay [1], in assay [2] and in assay [3] was “Dose-dependent effect” throughout.

On to `CC1CC(=O)C2=C(C1)NC1=C(C(=O)CC(C)C1)C2c1ccc(Cl)c(C(F)(F)F)c1` (stereo unspecified), for which the Activity entry in assay [1], in assay [2] and in assay [3] was “Dose-dependent effect” throughout.

Consider `CC1CC(=O)C2=C(C1)NC1=C(C(=O)CC(C)C1)C2c1cc(C(F)(F)F)ccc1F` (stereo unspecified), for which the Activity result in assay [1], in assay [2] and in assay [3] was “Dose-dependent effect” each time.

On to `CC1CC(=O)C2=C(C1)NC1=C(C(=O)CC(C)C1)C2c1cccc(C(F)(F)F)c1F` (stereo unspecified), for which the Activity result in assay [1], in assay [2] and in assay [3] was “Dose-dependent effect” each time.

On to `CC1CC(=O)C2=C(C1)NC1=C(C(=O)CC(C)C1)C2c1cc(C(F)(F)F)cc(Cl)c1F` (stereo unspecified), for which the Activity entry in assay [1], in assay [2] and in assay [3] was “Dose-dependent effect” throughout.

Regarding `CC1CC(=O)C2=C(C1)NC1=C(C(=O)CC(C)C1)C2c1ccc(C(F)(F)F)cc1F` (stereo unspecified), the Activity entry in assay [1], in assay [2] and in assay [3] was “Dose-dependent effect” throughout. Moreover, the pD2 in assay [3] is 4.12. Moreover, the Emax amounted to 27.7% in assay [4], 27.2% in assay [5] and 57.4% in assay [6].

Consider `CC1CC(=O)C2=C(C1)NC1=C(C(=O)CC(C)C1)C2c1cccc(C(F)(F)F)c1Cl` (stereo unspecified), for which the Activity result in assay [1], in assay [2] and in assay [3] was “Dose-dependent effect” in each case. Also, the pD2 in assay [3] was determined as 4.23. Further, the Emax turned out to be 19.8% in assay [4], 29% in assay [5] and 63% in assay [6].

Turning to `CC1CC(=O)C2=C(C1)NC1=C(C(=O)CC(C)C1)C2c1cc(C(F)(F)F)ccc1Cl` (stereo unspecified), the Activity entry in assay [1], in assay [2] and in assay [3] was “Dose-dependent effect” throughout.

Turning to `CC1CC(=O)C2=C(C1)NC1=C(C(=O)CC(C)C1)C2c1c(C(F)(F)F)ccc(Cl)c1F` (stereo unspecified), the Activity result in assay [1], in assay [2] and in assay [3] was “Dose-dependent effect” in each case. The pD2 in assay [3] was found to be 4.38. Moreover, the Emax in assay [6] was 52.2%.

For the molecule `CC1CC(=O)C2=C(C1)NC1=C(C(=O)CC(C)C1)C2c1c(F)cccc1C(F)(F)F` (stereo unspecified), the Activity result in assay [1], in assay [2] and in assay [3] was “Dose-dependent effect” throughout. The pD2 in assay [3] turned out to be 4.6. Moreover, the values for the maximum response (Emax) in assay [4], in assay [5] and in assay [6] were 21.8%, 23.8% and 59.5%, respectively.

`CC(N/C(=N\C#N)Nc1ccncc1)C(C)(C)C` (stereo unspecified): the Activity entry in assay [1], in assay [2] and in assay [3] was “Dose-dependent effect” in each case. Also, the pD2 in assay [3] was determined as 4.71. Moreover, the Emax was 18.5% in assay [4], 20.8% in assay [5] and 69.5% in assay [6].
